Measured values: patent publication US7612200B2, “Inhibitors of protein kinases” (Locus Pharmaceuticals, Inc., priority 2004, dated 2009)

How the values were obtained:
EphB4 = target: T1, EphB4 (Homo sapiens, UniProt P54760); assay: Kinase activity at ATP Km,app, EphB4; type: biochemical; details: 40 min, compound 2 μM
T1 sequence (P54760 16-987): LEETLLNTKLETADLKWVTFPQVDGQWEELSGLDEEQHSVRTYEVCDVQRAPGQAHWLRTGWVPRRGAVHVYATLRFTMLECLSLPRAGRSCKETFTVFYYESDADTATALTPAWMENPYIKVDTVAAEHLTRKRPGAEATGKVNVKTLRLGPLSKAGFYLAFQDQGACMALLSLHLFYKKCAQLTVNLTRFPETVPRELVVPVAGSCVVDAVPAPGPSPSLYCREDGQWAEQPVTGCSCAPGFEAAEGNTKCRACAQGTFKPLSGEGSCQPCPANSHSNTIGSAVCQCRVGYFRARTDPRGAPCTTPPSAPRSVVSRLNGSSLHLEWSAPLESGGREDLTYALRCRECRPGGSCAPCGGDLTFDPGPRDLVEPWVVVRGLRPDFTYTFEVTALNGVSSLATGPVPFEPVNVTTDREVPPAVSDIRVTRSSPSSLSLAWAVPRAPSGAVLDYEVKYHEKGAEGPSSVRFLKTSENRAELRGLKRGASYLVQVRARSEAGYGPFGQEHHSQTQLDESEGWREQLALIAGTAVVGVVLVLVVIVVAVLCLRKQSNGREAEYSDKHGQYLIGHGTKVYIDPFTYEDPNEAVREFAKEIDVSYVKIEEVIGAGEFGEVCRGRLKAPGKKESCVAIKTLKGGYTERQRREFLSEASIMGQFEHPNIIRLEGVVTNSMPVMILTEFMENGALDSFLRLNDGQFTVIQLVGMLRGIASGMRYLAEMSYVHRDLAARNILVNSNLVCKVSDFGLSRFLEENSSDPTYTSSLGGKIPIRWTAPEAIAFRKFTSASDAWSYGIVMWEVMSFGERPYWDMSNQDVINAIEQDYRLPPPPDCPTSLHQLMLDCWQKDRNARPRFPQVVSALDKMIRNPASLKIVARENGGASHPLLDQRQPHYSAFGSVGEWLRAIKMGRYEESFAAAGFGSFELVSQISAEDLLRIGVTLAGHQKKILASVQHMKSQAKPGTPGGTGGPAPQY
Procedure: EphB4 Kinase Activity: In a final reaction volume of 25 μl, EphB4 (h) (5-10 mU) is incubated with 8 mM MOPS pH 7.0, 0.2 mM EDTA, 10 mM MnCl2, 0.1 mg/ml poly(Glue, Tyr) 4:1, 10 mM MgAcetate and [γ-^33P-ATP] (specific activity approx. 500 cpm/pmol, concentration as required). The reaction is initiated by the addition of the MgATP mix. After incubatin for 40 minutes at room temperature, the reaction is stopped by the addition of 5 μl of a 3% phosphoric acid solution. 10 μl of the reaction is then spotted onto a Filtermat A and washed three times for 5 minutes in 75 mM phosphoric acid and once in methanol prior to drying and scintillating counting.

IGF1R = IGF1R (Homo sapiens, UniProt P08069); assay: Kinase activity at ATP Km,app, IGF1R; type: biochemical; details: 40 min, compound 2 μM
Procedure: IGF-1R Kinase Activity In a final reaction volume of 25 μl, IGF-1R (h) (5-10 mU) is incubated with 50 mM Tris pH 7.5, 0.1 mM EGTA, 0.1 mM Na3VO4, 0.1% β-mercaptoethanol, 250 μM KKKSPEGYVNIEFG, 10 mM MnCl2, 10 mM MgAcetate and [γ-^33P-ATP] (specific activity approx. 500 cpm/pmol, concentration as required). The reaction is initiated by the addition of the MgATP mix. After incubation for 40 minutes at room temperature, the reaction is stopped by the addition of 5 μl of a 3% phosphoric acid solution. 10 μl of the reaction is then spotted onto a P30 filtermat and washed three times for 5 minutes in 75 mM phosphoric acid and once in methanol prior to drying and scintillation counting.

Abl1 = assay: Kinase activity at ATP Km,app, Abl1; type: biochemical, mouse; details: compound 2 μM
Procedure: Abl Kinase activity: In a final reaction volume of 25 μL, Able (m) (5-10 mU) is incubated with […] pH 7.0, 0.2 mM EDTA, 50 μM EAIYAAPFAKKK, 10 mM MgAcetate and [γ-^33P-ATP] (specific activity approx. 500 cpm/pmol, concentration as required). The reaction is initiated by the addition of the MgATP mix. After incubation for 40 minutes at room temperature, the reaction is stopped by the addition of 5 μL of a 3% phosphoric acid solution. 10 μL of the reaction is then spotted onto a P30 filtermat and washed three times for 5 minutes in 75 mM phosphoric acid and once in methanol prior to drying and scintillation counting.

IGF1R, sequence (P08069 31-1367): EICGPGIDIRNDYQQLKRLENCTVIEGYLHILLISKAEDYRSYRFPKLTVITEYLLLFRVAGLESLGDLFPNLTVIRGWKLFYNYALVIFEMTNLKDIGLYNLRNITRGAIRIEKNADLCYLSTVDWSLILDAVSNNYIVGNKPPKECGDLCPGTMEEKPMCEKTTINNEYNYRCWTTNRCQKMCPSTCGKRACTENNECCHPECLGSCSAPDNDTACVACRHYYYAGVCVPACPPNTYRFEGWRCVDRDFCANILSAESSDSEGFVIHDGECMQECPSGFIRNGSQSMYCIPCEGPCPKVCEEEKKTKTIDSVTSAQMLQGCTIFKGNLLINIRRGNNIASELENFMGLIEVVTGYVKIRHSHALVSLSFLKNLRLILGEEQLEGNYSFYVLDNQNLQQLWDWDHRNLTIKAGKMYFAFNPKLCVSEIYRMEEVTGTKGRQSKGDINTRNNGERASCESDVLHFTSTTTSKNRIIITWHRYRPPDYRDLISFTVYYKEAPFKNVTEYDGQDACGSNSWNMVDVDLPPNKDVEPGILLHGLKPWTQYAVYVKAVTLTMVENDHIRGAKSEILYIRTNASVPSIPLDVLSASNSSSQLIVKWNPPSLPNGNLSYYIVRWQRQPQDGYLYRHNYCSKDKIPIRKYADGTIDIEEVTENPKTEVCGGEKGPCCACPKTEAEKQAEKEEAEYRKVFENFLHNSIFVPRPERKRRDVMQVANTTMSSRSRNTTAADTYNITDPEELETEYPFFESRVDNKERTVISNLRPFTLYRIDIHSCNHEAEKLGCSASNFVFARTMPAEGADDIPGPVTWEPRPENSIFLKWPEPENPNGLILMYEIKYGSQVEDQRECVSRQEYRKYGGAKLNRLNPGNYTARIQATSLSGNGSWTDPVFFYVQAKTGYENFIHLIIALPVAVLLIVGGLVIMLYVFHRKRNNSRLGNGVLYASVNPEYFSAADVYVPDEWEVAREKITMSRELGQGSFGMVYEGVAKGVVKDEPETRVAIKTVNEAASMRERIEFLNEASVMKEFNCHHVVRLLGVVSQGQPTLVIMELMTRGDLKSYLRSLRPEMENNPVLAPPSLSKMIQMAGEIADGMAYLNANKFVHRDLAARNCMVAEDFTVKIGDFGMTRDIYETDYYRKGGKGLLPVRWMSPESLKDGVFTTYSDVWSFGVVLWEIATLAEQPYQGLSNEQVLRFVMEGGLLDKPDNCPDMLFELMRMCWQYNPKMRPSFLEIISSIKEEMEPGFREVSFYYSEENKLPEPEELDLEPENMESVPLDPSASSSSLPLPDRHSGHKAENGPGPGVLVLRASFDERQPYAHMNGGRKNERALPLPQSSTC

| Compound | inhibition at 2 µM (EphB4) | inhibition at 2 µM (IGF1R) | % Inhibition at ATP Km,app (Abl1) |
| --- | --- | --- | --- |
| CC(C)(C)c1cc(C(=O)N2CCNC(=O)CC2)c(NC(=O)Nc2ccc(Oc3ccncc3)cc2)s1 [Example 4, 1-(5-tert-Butyl-3-(5-oxo-[1,4]diazepane-1-carbonyl)thiophen-2-yl)-3-(4-(pyridin-4-yloxy)phenyl)urea] | 76 to 100% | 0 to 25% | 0-25% |
| CC(C)(C)c1cc(C(=O)N2CCNS(=O)(=O)CC2)c(NC(=O)Nc2ccc(Oc3ccncc3)cc2)s1 [Example 1, 1-(5-tert-Butyl-3-(1,1-dioxo-1λ^6-[1,2,5]thiadiazepane-5-carbonyl)thiophen-2-yl)-3-(4-(pyridin-4-yloxy)phenyl)urea] | 76 to 100% | 0 to 25% | 0-25% |
| CC(C)(C)c1cc(C(=O)N2CCNC(=O)C2)c(NC(=O)Nc2ccc(Oc3ccncc3)cc2)s1 [Example 2, 1-(5-tert-Butyl-3-(3-oxo-piperazine-1-carbonyl)thiophen-2-yl)-3-(4-(pyridin-4-yloxy)phenyl)urea] | 76 to 100% | 0 to 25% | 0-25% |
